Patent US6506766B1 (Abbott Laboratories, priority 1998, dated 2003)

Legend:
[1] = molecular target: T1, human progesterone receptor-A [PRA] isoform (Homo sapiens, UniProt P06401); assay: Radioligand binding with human progesterone receptor cytosol ([3H]-progesterone competition); conditions: PRA cytosol expressed in insect SF21 cells, [3H]Prog ~0.8 nM, 4° C. overnight; Ki by Cheng-Prusoff, KL ~4.5 nM; read-out: Ki (nM) PR
T1 construct: host or cells: insect SF21 cells (baculovirus)
T1 sequence (P06401 1-769 isoform P06401-2): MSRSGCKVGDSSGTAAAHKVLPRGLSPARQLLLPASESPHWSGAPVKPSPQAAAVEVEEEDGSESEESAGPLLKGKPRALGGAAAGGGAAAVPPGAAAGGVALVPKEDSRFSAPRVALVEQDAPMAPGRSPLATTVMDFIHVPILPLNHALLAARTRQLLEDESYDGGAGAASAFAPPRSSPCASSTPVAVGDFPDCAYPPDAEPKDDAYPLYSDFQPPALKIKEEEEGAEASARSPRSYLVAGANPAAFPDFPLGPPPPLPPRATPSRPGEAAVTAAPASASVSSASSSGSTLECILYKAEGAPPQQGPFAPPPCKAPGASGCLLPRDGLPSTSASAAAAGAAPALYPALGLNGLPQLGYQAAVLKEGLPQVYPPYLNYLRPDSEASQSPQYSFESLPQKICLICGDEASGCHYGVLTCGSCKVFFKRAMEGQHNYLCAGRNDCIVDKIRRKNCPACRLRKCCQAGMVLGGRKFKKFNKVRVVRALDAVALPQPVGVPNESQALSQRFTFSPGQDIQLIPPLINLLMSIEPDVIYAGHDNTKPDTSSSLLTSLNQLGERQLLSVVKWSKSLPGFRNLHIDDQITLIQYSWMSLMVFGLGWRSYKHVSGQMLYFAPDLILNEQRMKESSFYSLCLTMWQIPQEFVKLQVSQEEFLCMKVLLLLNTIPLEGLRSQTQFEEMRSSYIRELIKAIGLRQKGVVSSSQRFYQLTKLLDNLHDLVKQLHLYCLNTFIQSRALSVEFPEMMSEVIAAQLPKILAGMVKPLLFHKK

[2] = molecular target: T2, human glucocorticoid receptor-α [GRX] isoform (Homo sapiens, UniProt P04150); assay: Radioligand binding with human glucocorticoid receptor cytosol ([3H]-dexamethasone competition); conditions: GRX cytosol expressed in insect SF21 cells, [3H]-Dex ~0.9 nM, 4° C. overnight; Ki by Cheng-Prusoff, KL ~[…]; read-out: Ki (nM) GR
T2 construct: host or cells: insect SF21 cells (baculovirus)
T2 sequence (P04150 1-777): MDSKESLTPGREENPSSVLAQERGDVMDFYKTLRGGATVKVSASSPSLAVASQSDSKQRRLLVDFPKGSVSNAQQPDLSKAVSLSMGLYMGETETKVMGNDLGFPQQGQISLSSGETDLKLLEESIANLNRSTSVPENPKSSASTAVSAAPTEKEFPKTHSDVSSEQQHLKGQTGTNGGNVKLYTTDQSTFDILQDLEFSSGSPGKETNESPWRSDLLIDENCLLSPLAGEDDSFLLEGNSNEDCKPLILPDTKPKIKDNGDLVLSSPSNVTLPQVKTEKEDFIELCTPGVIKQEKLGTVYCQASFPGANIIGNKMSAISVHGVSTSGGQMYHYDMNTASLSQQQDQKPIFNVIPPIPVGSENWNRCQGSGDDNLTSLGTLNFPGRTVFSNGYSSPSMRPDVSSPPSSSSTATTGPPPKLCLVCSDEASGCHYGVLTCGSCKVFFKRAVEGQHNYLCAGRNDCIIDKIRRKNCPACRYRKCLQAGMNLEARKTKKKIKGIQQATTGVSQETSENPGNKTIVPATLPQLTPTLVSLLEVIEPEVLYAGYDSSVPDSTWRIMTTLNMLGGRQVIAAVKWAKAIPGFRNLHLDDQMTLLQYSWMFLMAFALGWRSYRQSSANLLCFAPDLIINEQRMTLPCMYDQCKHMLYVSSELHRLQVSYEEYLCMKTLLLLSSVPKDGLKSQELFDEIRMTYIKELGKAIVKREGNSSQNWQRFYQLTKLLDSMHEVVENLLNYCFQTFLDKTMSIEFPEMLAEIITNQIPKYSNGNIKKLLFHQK

Row | Ki [1] [nM] | Ki [2] [nM] | Structure (SMILES)
1 | 155 | 0.94 | C=CCC1Oc2ccc(O)c(OC)c2-c2ccc3c(c21)C(C)=CC(C)(C)N3 (centres unmarked) [Example 235, 10-Methoxy-9-hydroxy-5-(3-propenyl)-2,2,4-trimethyl-1H-2,5-dihydro-[1]benzopyrano[3,4-f]quinoline]
2 | 2170 | 52.2 | COc1c(O)ccc2c1-c1ccc3c(c1[C@@H]([C@@H]1C=C(C)CCC1)O2)C(C)=CC(C)(C)N3 [Example 240, (+)(5R,3′S)-9-Hydroxy-5-[1-methyl-3-cyclohexenyl]-10-methoxy-2,2,4-trimethyl-2,5-dihydro-1H-[1]benzopyrano[3,4-f]quinoline]
3 | 113 | 0.87 | COc1c(O)ccc2c1-c1ccc3c(c1[C@H]([C@@H]1C=CCCCC1)O2)C(C)=CC(C)(C)N3 [Example 246, (−)(5S,3′S)2,5-Dihydro-9-hydroxy-10-methoxy-2,2,4-trimethyl-5-(3-cycloheptenyl)-1H-[1]benzopyrano[3,4-f]quinoline]
4 | 195 | 0.86 | COc1c(O)ccc2c1-c1ccc3c(c1[C@H]([C@H]1C=CCCCC1)O2)C(C)=CC(C)(C)N3 [Example 247, (−)(5S,3′R)2,5-Dihydro-9-hydroxy-10-methoxy-2,2,4-trimethyl-5-(3-cycloheptenyl)-1H-[1]benzopyrano[3,4-f]quinoline]
5 | 870 | 1 | COc1c(O)ccc2c1-c1ccc3c(c1C(c1ccccc1)O2)C(C)=CC(C)(C)N3 (centres unmarked) [Example 248, 2,5-Dihydro-9-hydroxy-10-methoxy-2,2,4-trimethyl-5-phenyl-1H-[1]benzopyrano[3,4-f]quinoline]
6 | 488 | 0.8 | COc1c(O)ccc2c1-c1ccc3c(c1C(c1cc(F)cc(F)c1)O2)C(C)=CC(C)(C)N3 (centres unmarked) [Example 249, 2,5-Dihydro-9-hydroxy-10-methoxy-2,2,4-trimethyl-5-(3,5-difluorophenyl)-1H-[1]benzopyrano[3,4-f]quinoline]
7 | 1470 | 2.4 | COc1c(O)ccc2c1-c1ccc3c(c1C(c1cc(F)c(F)c(F)c1)O2)C(C)=CC(C)(C)N3 (centres unmarked) [Example 250, 2,5-Dihydro-9-hydroxy-10-methoxy-2,2,4-trimethyl-5-(3,4,5-trifluorophenyl)-1H-[1]benzopyrano[3,4-f]quinoline]
8 | 102 | 0.39 | COc1c(O)ccc2c1-c1ccc3c(c1[C@H]([C@@H]1C=CCC1)O2)C(C)=CC(C)(C)N3 [Example 252]
9 | 42 | 0.38 | COc1c(O)ccc2c1-c1ccc3c(c1[C@H]([C@H]1C=CCC1)O2)C(C)=CC(C)(C)N3 [Example 253, (−)(5S,3′R)2,5-Dihydro-9-hydroxy-10-methoxy-2,2,4-trimethyl-5-(3-cyclopentenyl)-1H-[1]benzopyrano[3,4-f]quinoline]
10 | 1430 | 1.5 | COc1c(O)ccc2c1-c1ccc3c(c1C(c1ccc(F)cc1)O2)C(C)=CC(C)(C)N3 (centres unmarked) [Example 255, 2,5-Dihydro-9-hydroxy-10-methoxy-2,2,4-trimethyl-5-(4-fluorophenyl)-1H-[1]benzopyrano[3,4-f]quinoline]
11 | 266 | 3.8 | COc1c(O)ccc2c1-c1ccc3c(c1C(c1cccc(C(F)(F)F)c1)O2)C(C)=CC(C)(C)N3 (centres unmarked) [Example 256, 2,5-Dihydro-9-hydroxy-10-methoxy-2,2,4-trimethyl-5-(3-trifluoromethylphenyl)-1H-[1]benzopyrano[3,4-f]quinoline]
12 | 1620 | 10 | COc1c(O)ccc2c1-c1ccc3c(c1C(c1cc(C(F)(F)F)cc(C(F)(F)F)c1)O2)C(C)=CC(C)(C)N3 (centres unmarked) [Example 257, 2,5-Dihydro-9-hydroxy-10-methoxy-2,2,4-trimethyl-5-(3-5-bistrifluoromethylphenyl)-1H-[1]benzopyrano[3,4-f]quinoline]
13 | 879 | 10.7 | COc1c(O)ccc2c1-c1ccc3c(c1C(c1ccc(Cl)c(C(F)(F)F)c1)O2)C(C)=CC(C)(C)N3 (centres unmarked) [Example 258, 2,5-Dihydro-9-hydroxy-10-methoxy-2,2,4-trimethyl-5-(3-trifluoromethyl-4-chlorophenyl)-1H-[1]benzopyrano[3,4-f]quinoline]
14 | 938 | 1.2 | COc1c(O)ccc2c1-c1ccc3c(c1C(CC(C)C)O2)C(C)=CC(C)(C)N3 (centres unmarked) [Example 259, 2,5-Dihydro-9-hydroxy-10-methoxy-2,2,4-trimethyl-5-(2-methylpropyl)-1H-[1]benzopyrano[3,4-f]quinoline]
15 | 161 | 0.75 | C=CCCC1Oc2ccc(O)c(OC)c2-c2ccc3c(c21)C(C)=CC(C)(C)N3 (centres unmarked) [Example 261, 2,5-Dihydro-9-hydroxy-10-methoxy-2,2,4-trimethyl-5-(3-butenyl)-1H-[1]benzopyrano[3,4-f]quinoline]
16 | 150 | 1.1 | COc1c(O)ccc2c1-c1ccc3c(c1C(Cc1ccccc1)O2)C(C)=CC(C)(C)N3 (centres unmarked) [Example 262, 2,5-Dihydro-9-hydroxy-10-methoxy-5-(phenylmethyl)-2,2,4-trimethyl-1H-[1]benzopyrano[3,4-f]quinoline]
17 | 307 | 0.51 | COc1c(O)ccc2c1-c1ccc3c(c1[C@H](C1CCCC1)O2)C(C)=CC(C)(C)N3 [Example 264, (−)(S)5-Cyclopentyl-2,5-dihydro-9-hydroxy-10-methoxy-2,2,4-trimethyl-1H-[1]benzopyrano[3,4-f]quinoline]
18 | 102 | 0.71 | C#CCC1Oc2ccc(O)c(OC)c2-c2ccc3c(c21)C(C)=CC(C)(C)N3 (centres unmarked) [Example 266, 2,5-Dihydro-9-hydroxy-10-methoxy-5-(3-propynyl)-2,2,4-trimethyl-1H-[1]benzopyrano[3,4-f]quinoline]
19 | 938 | 0.79 | COc1c(O)ccc2c1-c1ccc3c(c1C(C(C)C)O2)C(C)=CC(C)(C)N3 (centres unmarked) [Example 267, 2,5-Dihydro-9-hydroxy-10-methoxy-2,2,4-trimethyl-5-(2-propyl)-1H-[1]benzopyrano[3,4-f]quinoline]
20 | 486 | 0.84 | COc1ccc(C2Oc3ccc(O)c(OC)c3-c3ccc4c(c32)C(C)=CC(C)(C)N4)s1 (centres unmarked) [Example 268, 2,5-Dihydro-9-hydroxy-10-methoxy-2,2,4-trimethyl-5-(5-methoxy-2-thienyl)-1H-[1]benzopyrano[3,4-f]quinoline]
21 | 66.4 | 0.39 | COc1c(O)ccc2c1-c1ccc3c(c1[C@H]([C@@H]1C=CCCC1)O2)C(C)=CC(C)(C)N3 [Example 272, (−)(5S,3′S)2,5-Dihydro-9-hydroxy-10-methoxy-2,2,4-trimethyl-5-(3-cyclohexenyl)-1H-[1]benzopyrano[3,4-f]quinoline]
22 | 35.8 | 0.56 | COc1c(O)ccc2c1-c1ccc3c(c1[C@H]([C@H]1C=CCCC1)O2)C(C)=CC(C)(C)N3 [Example 273]
23 | 272 | 11.3 | CCC1=C[C@@H]([C@H]2Oc3ccc(O)c(OC)c3-c3ccc4c(c32)C(C)=CC(C)(C)N4)CCC1 [Example 277]
24 | 533 | 1.1 | COc1c(O)ccc2c1-c1ccc3c(c1C(C1CCCCC1)O2)C(C)=CC(C)(C)N3 (centres unmarked) [Example 278, 2,5-Dihydro-9-hydroxy-10-methoxy-2,2,4-trimethyl-5-cyclohexyl-1H-[1]benzopyrano[3,4-f]quinoline]
25 | 1900 | 12.4 | COc1c(O)ccc2c1-c1ccc3c(c1CO2)C(C)=CC(C)(C)N3 [Example 279, 2,5,5-Trihydro-9-hydroxy-10-methoxy-2,2,4-trimethyl-1H-[1]benzopyrano[3,4-f]quinoline]
